Laboratory results as given in patent US6689767B2, “Triterpenes having antibacterial activity” (Regents of the University of Minnesota, priority 2000, dated 2004).

How the values were obtained:
Enterococcus faecilis = experiment: Growth in liquid culture, optical density, E. faecalis; type: cell-based, Enterococcus faecalis; conditions: 600 nm, 24 hours growth, test compound at 14 μg per ml; None = 0.85
Procedure: (§1) Derivatives of lupeol were tested for inhibition of bacterial growth using the Kirby-Bauer disk diffusion method and by growth in liquid culture. For the disk diffusion method, compounds were dissolved in DMSO and 100 μl was added to the 10 mm filter paper disk. The amount of compound applied to the disk varied. The amount applied for each compound was as follows: lupeol (50 μg), lupeol-3-maleate (15 μg), lupeol-3-thiodiglycolate (15 μg), lupeol-3-dimethyl succinate (60 μg), lupeol-3-phosphate (30 μg), lupenone (50 μg), lupenon-3-oxime (50 μg), lupeol-3-amine (50 μg), lupenon-1,2-ene-2-ol (50 μg). In liquid culture, the compounds were dissolved in DMSO at 1 mg/ml and then 100 μl was added to 7 ml of sterile broth, along with a 1/200 dilution of freshly grown bacterial liquid culture.

[1] = test system: Staphylococcus epidemidis; experiment: Kirby-Bauer disk diffusion of lupeol derivatives, Staphylococcus epidermidis; type: cell-based; conditions: for Active against: Table 1 summary, S. epidermidis; for activity against S. epidermidis: Example 35, disk diffusion and liquid growth
Procedure: as §1

Staphylococcus aureus [2] = experiment: Kirby-Bauer disk diffusion growth inhibition, Staphylococcus aureus; type: cell-based; conditions: for Active against: Table 1 summary, S. aureus
Procedure: (§2) The compounds disclosed herein were tested for growth inhibition against four strains of bacteria: Escherichia coli, Staphylococcus aureus, methicillin-resistant Staphylococcus aureus, and Bacillus subtilis. […] They represent […]. E. coli is a gram-negative, non-spore forming, rod-shaped, opportunistic pathogen that resides in the human digestive tract. S. aureus is a gram positive coccus, is usually found morphologically as a […], and is an opportunistic human pathogen, often residing on or in the skin. B. subtilis is a gram positive spore-forming rod. Its native environment is the soil. The chemicals were tested for growth-inhibition of the bacteria by the Kirby-Bauer method. See, e.g., Microbiology, third edition; Lansing M. Prescott, John P. Harley, and Donald A. Klein; Wm. C. Brown Publishers.
(§3) Mueller-Hinton agar (Difco Lab, Michigan) was prepared according to the manufacturer's directions, and 20 ml was dispensed in each sterile petri dish. Sterile nutrient broth (Difco Lab, Michigan) was also prepared according to the manufacturer's directions.
(§4) Bacteria were grown in liquid nutrient broth for 18 hours at 37° C. until they were turbid.
(§5) An aliquot of 0.5 ml of cultured bacteria was aseptically transferred to the surface of a Mueller-Hinton agar plat, and spread using a cotton-tipped swab. Plates were then allowed to dry for 5 minutes. Then a 10 mm diameter filter paper disk impregnated with the test chemical was placed with sterile forceps on the plate. The disks were impregnated with 100 μl of a solution of the test compound in DMSO or in water, at the indicated concentrations in Table 1.
(§6) The zones of inhibition were measured after 18 hours growth at 37° C. Tests were done in triplicate.
(§7) Additional compounds were tested for activity against E. coli, laboratory strain S. aureus (not methicillin resistant), and B. subtilis. The compounds were tested by the disk diffusion method, as in Example 1, with application of a 10 mg/mil solution of the test compound in DMSO.
as §1

Staphylococcus epidermis = experiment: Growth in liquid culture, optical density, S. epidermidis; type: cell-based, Staphylococcus epidermidis; conditions: 600 nm, 24 hours growth, test compound at 14 μg per ml; None = 0.07
Procedure: as §1

Staphylococcus aureus [3] = experiment: Growth in liquid culture, optical density, S. aureus; type: cell-based; conditions: 600 nm, 24 hours growth, test compound at 14 μg per ml; None = 0.08
Procedure: as §1

bacteria = experiment: Summary statements over the antibacterial assays above; type: cell-based; conditions: for overall activity in Example 35: S. aureus, S. epidermidis, E. faecalis, disk diffusion and liquid growth; for active against at least one strain of bacteria in the assays above: summary list
Enterococcus faecalis = experiment: Kirby-Bauer disk diffusion of lupeol derivatives, Enterococcus faecalis; type: cell-based; conditions: for Active against: Table 1 summary, E. faecalis
Procedure: as §1

Escherichia coli = experiment: Kirby-Bauer disk diffusion growth inhibition, Escherichia coli; type: cell-based; conditions: Escherichia coli; 125 ng/ml in water, 100 μl on 10 mm disk, 18 hours 37° C.; read-out: Zone of inhibition Escherichia coli
Procedure: as §2, §3, §4, §5, §6, §7

Bacillus subtilis = experiment: Kirby-Bauer disk diffusion growth inhibition, Bacillus subtilis; type: cell-based; conditions: Bacillus subtilis; 125 ng/ml in water, 100 μl on 10 mm disk, 18 hours 37° C.; read-out: Zone of inhibition Bacillus subtilis
Procedure: as §2, §3, §4, §5, §6, §7

[4] = 50 μg applied to 10 mm disk in DMSO
[5] = Example 35, 50 μg applied to 10 mm disk in DMSO
[6] = 60 μg applied to 10 mm disk in DMSO
[7] = 15 μg applied to 10 mm disk in DMSO
[8] = Example 35, 15 μg applied to 10 mm disk in DMSO
[9] = 30 μg applied to 10 mm disk in DMSO

SMILES	Optical Density of E. faecalis (Enterococcus faecilis)	Zone of inhibition (mm) against S. epiderm. [1, 4]	Active against [1]	Zone of inhibition (mm) against S. aureus (Staphylococcus aureus [2]; [5])	Active against (Staphylococcus aureus [2])	Optical Density of S. epiderm (Staphylococcus epidermis)	Optical Density of S. aureus (Staphylococcus aureus [3])	active against at least one strain of bacteria in the assays above (bacteria)	Zone of inhibition (mm) against E. faecalis (Enterococcus faecalis; [4])	Active against (Enterococcus faecalis)	activity against S. epidermidis [1]	further results
CC(=O)OC1CC[C@@]2(C)C(CC[C@]3(C)C2CCC2C4C5OC(=O)C4(CCC5(C)C)CC[C@@]23C)C1(C)C (stereo partly drawn) [Allobetulin lactone-3-acetate, 3-O-acetyl allobetulin-lactone]												melting point: 312.5 to 315.4 °C (dec.)
C=C(C)[C@@H]1CC[C@]2(C)CC[C@]3(C)[C@H](CC[C@@H]4[C@@]5(C)C=C(O)C(=O)C(C)(C)[C@@H]5CC[C@]43C)[C@@H]12 [Lupenon-1,2-ene-2-ol]	0.01	2.65 mm	S. epidermidis,	0.85 mm	S. aureus,	0.006	0.04	active against at least one strain of bacteria	0.6 mm	E. faecalis		overall activity in Example 35 (bacteria): most active compound against almost all the bacteria
C=C(C)[C@@H]1CC[C@]2(C)CC[C@]3(C)[C@H](CC[C@@H]4[C@@]5(C)CCC(=O)C(C)(C)[C@@H]5CC[C@]43C)[C@@H]12 [Lupenone]	0.04	1 mm		1.25 mm	S. aureus,	0.03	0.04	active against at least one strain of bacteria	0.5 mm	E. faecalis		overall activity in Example 35 (bacteria): excellent activity
C=C(C)C1CCC2(C)CCC3(C)C(CCC4C5(C)CCC(OC(=O)CC(C)(C)C(=O)O)C(C)(C)C5CCC43C)C12 (stereo not drawn) [Lupeol-3-(3′,3′-dimethyl)succinate]	0.07				S. aureus	0.06	0.06	active against at least one strain of bacteria				Zone of inhibition (mm) against S. epiderm. [1, 6]: 0 mm; Zone of inhibition (mm) against S. aureus (Staphylococcus aureus [2]; Example 35, 60 μg applied to 10 mm disk in DMSO): 0.5 mm; Zone of inhibition (mm) against E. faecalis (Enterococcus faecalis; [6]): 0 mm
C=C(C)[C@@H]1CC[C@]2(C)CC[C@]3(C)[C@H](CC[C@@H]4[C@@]5(C)CCC(N)C(C)(C)[C@@H]5CC[C@]43C)[C@@H]12 (stereo partly drawn) [Lupeol-3-amine]	0.04	0 mm		0.3 mm	S. aureus,	0.06	0.06	active against at least one strain of bacteria	0.5 mm	E. faecalis		
C=C(C)C1CCC2(C)CCC3(C)C(CCC4C5(C)CCC(OC(=O)C=CC(=O)O)C(C)(C)C5CCC43C)C12 (stereo not drawn) [Lupeol-3-maleate]	0.03		S. epidermidis,		S. aureus,	0.04	0.06	active against at least one strain of bacteria		E. faecalis	active	Zone of inhibition (mm) against S. epiderm. [1, 7]: 0.5 mm; Zone of inhibition (mm) against S. aureus (Staphylococcus aureus [2]; [8]): 0.4 mm; Zone of inhibition (mm) against E. faecalis (Enterococcus faecalis; [7]): 1.15 mm
C=C(C)[C@@H]1CC[C@]2(C)CC[C@]3(C)[C@H](CC[C@@H]4[C@@]5(C)CC[C@H](OP(=O)(O)O)C(C)(C)[C@@H]5CC[C@]43C)[C@@H]12 [Lupeol-3-phosphate]	0.04				S. aureus,	0.06	0.06	active against at least one strain of bacteria		E. faecalis		Zone of inhibition (mm) against S. epiderm. [1, 9]: 0 mm; Zone of inhibition (mm) against S. aureus (Staphylococcus aureus [2]; Example 35, 30 μg applied to 10 mm disk in DMSO): 0.5 mm; Zone of inhibition (mm) against E. faecalis (Enterococcus faecalis; [9]): 0.5 mm
C=C(C)[C@@H]1CC[C@]2(C)CC[C@]3(C)[C@H](CC[C@@H]4[C@@]5(C)CC[C@H](OC(=O)CSCC(=O)O)C(C)(C)[C@@H]5CC[C@]43C)[C@@H]12 [Lupeol-3-thiodiglycolate]	0.04		S. epidermidis,		S. aureus,	0.035	0.06	active against at least one strain of bacteria		E. faecalis	active	Zone of inhibition (mm) against S. epiderm. [1, 7]: 0.5 mm; Zone of inhibition (mm) against S. aureus (Staphylococcus aureus [2]; [8]): 0.3 mm; Zone of inhibition (mm) against E. faecalis (Enterococcus faecalis; [7]): 0.75 mm
C=C(C)[C@@H]1CC[C@]2(C)CC[C@@]3(C)C(CCC4[C@@]5(C)CC[C@H](O)C(C)(C)C5CC[C@]43C)C12 (stereo partly drawn) [Lupeol]	0.03		S. epidermidis		S. aureus,	0.04	0.06	active against at least one strain of bacteria		Enterococcus faecalis	active	zone of inhibition at 50 µg/disc ([1]; Staphylococcus, 50 μg applied to 10 mm disk in DMSO, read-out: Zone of inhibition (mm) against S. epiderm.): 0 mm; zone of inhibition at 0.125 µg/mL (Staphylococcus aureus [2]; Staphylococcus aureus, 125 ng/ml in water, 100 μl on 10 mm disk, 18 hours 37° C., read-out: Zone of inhibition Staphylococcus aureus): 0 mm; zone of inhibition at 50 µg/disc (Staphylococcus aureus [2]; Staphylococcus aureus, Example 35, 50 μg applied to 10 mm disk in DMSO, read-out: Zone of inhibition (mm) against S. aureus): 1 mm; zone of inhibition at 0.125 µg/mL (Escherichia coli): 0 mm; zone of inhibition at 0.125 µg/mL (Bacillus subtilis): 0 mm; zone of inhibition at 50 µg/disc (Enterococcus faecalis; Enterococcus faecalis, 50 μg applied to 10 mm disk in DMSO, read-out: Zone of inhibition (mm) against E. faecalis): 1.4 mm
